Experimental data as given in PMC8716817 (Frontiers in Pharmacology, 2021).

How the values were obtained:
NaV1.8 = target: T1, NaV1.8 (Rattus norvegicus, UniProt Q62968); type: cell-based
T1 construct: gene Scn10a

NaV1.7 = target: T2, NaV1.7 (Rattus norvegicus, UniProt O08562); assay: whole-cell patch clamp, stable NaV1.[…] HEK cells (vincristine pre-incubated); type: cell-based
T2 construct: gene Scn9a
T2 sequence (O08562 whole entry): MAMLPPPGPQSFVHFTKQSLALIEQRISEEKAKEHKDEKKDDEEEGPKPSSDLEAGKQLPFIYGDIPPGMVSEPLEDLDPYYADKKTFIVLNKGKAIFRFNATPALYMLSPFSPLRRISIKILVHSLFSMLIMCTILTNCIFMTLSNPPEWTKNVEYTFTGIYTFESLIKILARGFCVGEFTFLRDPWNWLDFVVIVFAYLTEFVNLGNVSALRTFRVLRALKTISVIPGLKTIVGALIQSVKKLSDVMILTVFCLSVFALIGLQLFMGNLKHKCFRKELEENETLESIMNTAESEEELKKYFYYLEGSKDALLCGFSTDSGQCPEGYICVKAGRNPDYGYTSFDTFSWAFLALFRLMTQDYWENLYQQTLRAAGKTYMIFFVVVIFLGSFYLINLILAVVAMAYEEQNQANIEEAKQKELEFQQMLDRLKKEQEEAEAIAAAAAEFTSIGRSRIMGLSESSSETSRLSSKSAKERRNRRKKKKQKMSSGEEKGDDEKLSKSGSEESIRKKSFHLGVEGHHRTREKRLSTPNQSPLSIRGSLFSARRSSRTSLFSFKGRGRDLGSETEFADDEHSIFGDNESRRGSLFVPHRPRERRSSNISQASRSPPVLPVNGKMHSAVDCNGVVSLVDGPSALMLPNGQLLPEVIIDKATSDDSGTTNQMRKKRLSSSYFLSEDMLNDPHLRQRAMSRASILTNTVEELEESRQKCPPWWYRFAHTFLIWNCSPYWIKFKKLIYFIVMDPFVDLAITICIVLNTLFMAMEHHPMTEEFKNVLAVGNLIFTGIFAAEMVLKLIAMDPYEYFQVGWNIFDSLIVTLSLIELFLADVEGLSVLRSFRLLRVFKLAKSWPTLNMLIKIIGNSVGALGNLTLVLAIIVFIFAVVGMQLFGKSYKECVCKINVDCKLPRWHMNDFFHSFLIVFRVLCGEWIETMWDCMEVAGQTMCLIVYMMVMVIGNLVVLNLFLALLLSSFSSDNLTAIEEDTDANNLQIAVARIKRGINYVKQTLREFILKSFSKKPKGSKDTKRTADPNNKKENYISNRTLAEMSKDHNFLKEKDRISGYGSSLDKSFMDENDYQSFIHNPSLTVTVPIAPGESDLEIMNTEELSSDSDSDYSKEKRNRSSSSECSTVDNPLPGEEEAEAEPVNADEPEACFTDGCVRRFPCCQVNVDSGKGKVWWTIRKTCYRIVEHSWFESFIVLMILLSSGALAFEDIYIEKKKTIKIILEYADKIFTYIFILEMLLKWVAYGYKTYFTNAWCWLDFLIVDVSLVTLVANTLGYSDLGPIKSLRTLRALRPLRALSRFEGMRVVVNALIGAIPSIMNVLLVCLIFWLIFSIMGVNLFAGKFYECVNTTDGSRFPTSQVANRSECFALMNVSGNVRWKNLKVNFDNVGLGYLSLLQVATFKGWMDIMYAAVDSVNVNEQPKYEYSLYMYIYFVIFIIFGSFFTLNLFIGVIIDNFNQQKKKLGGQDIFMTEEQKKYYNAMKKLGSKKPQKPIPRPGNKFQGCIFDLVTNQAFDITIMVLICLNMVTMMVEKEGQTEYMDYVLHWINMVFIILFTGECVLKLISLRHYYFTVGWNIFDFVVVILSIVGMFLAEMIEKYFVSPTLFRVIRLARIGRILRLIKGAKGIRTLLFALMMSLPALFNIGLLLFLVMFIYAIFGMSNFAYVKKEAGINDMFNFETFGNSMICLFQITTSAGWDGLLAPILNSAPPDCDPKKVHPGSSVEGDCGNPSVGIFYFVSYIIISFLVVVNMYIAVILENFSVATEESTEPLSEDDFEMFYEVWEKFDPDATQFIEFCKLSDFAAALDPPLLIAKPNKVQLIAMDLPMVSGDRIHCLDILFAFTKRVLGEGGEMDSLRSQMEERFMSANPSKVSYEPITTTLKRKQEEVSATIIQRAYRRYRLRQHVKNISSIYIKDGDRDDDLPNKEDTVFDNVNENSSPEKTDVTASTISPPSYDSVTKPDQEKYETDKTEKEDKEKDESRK

T1 sequence (Q62968 whole entry): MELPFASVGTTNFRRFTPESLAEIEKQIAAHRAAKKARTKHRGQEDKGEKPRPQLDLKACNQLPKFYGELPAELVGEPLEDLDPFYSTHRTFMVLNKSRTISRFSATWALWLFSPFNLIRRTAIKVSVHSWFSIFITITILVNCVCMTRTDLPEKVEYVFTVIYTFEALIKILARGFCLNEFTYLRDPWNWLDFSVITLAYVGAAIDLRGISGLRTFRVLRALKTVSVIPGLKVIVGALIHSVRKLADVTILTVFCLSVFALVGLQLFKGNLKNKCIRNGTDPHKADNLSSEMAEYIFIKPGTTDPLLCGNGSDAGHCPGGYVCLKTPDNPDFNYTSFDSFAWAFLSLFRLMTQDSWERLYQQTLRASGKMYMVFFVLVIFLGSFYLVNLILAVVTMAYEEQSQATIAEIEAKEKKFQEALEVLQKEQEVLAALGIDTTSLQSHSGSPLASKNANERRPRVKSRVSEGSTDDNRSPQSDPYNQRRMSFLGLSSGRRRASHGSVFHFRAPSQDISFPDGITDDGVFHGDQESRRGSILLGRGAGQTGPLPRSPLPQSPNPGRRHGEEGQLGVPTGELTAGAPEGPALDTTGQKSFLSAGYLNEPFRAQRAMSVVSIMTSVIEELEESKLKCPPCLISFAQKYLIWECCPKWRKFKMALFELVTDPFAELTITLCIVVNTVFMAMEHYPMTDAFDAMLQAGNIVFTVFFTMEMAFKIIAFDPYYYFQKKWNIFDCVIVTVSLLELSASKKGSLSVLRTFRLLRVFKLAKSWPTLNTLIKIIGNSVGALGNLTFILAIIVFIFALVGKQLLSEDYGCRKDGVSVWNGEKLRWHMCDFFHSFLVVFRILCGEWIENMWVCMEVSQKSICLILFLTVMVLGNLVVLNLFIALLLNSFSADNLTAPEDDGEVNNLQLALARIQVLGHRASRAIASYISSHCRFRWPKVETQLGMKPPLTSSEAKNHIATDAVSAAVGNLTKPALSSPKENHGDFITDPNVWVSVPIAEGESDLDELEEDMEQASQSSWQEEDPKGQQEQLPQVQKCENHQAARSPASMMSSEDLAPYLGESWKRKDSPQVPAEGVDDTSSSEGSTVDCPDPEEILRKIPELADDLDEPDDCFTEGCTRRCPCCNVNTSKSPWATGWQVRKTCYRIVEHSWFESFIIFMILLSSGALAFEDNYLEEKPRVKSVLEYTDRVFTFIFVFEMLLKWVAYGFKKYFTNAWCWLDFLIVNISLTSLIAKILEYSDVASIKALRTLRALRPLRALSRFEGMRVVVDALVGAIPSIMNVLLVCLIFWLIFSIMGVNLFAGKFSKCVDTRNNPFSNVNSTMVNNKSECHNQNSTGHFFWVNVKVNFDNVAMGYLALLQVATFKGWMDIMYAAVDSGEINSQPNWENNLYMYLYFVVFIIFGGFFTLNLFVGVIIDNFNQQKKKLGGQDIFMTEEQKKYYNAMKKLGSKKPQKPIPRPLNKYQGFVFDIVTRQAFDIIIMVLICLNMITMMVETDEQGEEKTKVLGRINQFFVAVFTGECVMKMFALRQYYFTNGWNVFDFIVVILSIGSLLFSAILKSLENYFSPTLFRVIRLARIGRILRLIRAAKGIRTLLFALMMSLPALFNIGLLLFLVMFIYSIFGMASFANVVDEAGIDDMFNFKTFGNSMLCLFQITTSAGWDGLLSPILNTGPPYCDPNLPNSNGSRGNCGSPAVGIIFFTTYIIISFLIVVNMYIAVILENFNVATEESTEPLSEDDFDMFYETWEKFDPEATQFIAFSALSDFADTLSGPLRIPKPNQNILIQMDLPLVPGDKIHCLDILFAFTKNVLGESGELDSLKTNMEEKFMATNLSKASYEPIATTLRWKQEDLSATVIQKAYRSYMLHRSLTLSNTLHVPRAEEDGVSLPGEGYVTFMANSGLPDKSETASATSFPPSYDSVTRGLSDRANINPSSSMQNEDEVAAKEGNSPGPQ

OCc1ccc(O[C@@H]2O[C@H](CO)[C@@H](O)[C@H](O)[C@H]2O)cc1 [GAS, Gastrodin]
IC50 (NaV1.8): 67.5 ± 20.7 µM | IC50 (NaV1.7): 25.9 ± 0.98 µM
